The text below walks through data of US20240140950A1, “NITROGEN-CONTAINING POLYCYCLIC AROMATIC COMPOUND, and PREPARATION METHOD AND APPLICATION THEREOF” (priority 2021, published 2024).

Series [1] has as its system cancer cell HELA. As to the kind of experiment: MTT cell inhibition assay, HELA. It counts as cell-based. The note with it: 48 h. On the technique in general: Tetrazolium dyes change colour on reduction, which living cells bring about.
Protocol: (§4) Two cancer cell lines HELA and MCF-7 in the logarithmic phase and the human normal cell line 293T are taken and the cells thereof are counted with a cell counting plate, and then the concentration of the cell suspension is adjusted to 10^5 cells/mL. The cells are inoculated into a 96-well plate with 100 μL of cell suspension for each well. After the cell suspension is evenly distributed, and the plate is placed into a CO2 incubator for incubation. […] For each drug to be tested and control groups, 100 μL of the drug to be tested is added to each well; and four parallel replicates are set for each concentration. After 48 h cultivation, 10 μL MTT is added for another 4 h cultivation, and the supernatant is discarded. 100 μL analytically pure dimethyl sulfoxide is added, and shaken evenly on a shaking table. After the solution is completely uniform, its absorbance is measured at a wavelength of 490 nm with a microplate reader. The experiment is repeated twice.
For series [2], the system named is human normal cell 293T. As to the kind of experiment: MTT cytotoxicity assay, human normal cell 293T. It counts as cell-based. Conditions: 48 h, read-out: IC50 value of the inhibition on human normal cell 293T. Here is the method:
Two cancer cell lines HELA and MCF-7 in the logarithmic phase and the human normal cell line 293T are taken and the cells thereof are counted with a cell counting plate, and then the concentration of the cell suspension is adjusted to 10^5 cells/mL. The cells are inoculated into a 96-well plate with 100 μL of cell suspension for each well. After the cell suspension is evenly distributed, and the plate is placed into a CO2 incubator for incubation. The drug to be tested is added after the cells grow uniformly and have spread on all the bottom of the culture dish. DMEM culture solution is used as a negative control group (the drug to be tested is completely dissolved in the culture solution without dissolving it in DMSO), and cisplatin is used as a positive control group. For each drug to be tested and control groups, 100 μL of the drug to be tested is added to each well; and four parallel replicates are set for each concentration. After 48 h cultivation, 10 μL MTT is added for another 4 h cultivation, and the supernatant is discarded. 100 μL analytically pure dimethyl sulfoxide is added, and shaken evenly on a shaking table. After the solution is completely uniform, its absorbance is measured at a wavelength of 490 nm with a microplate reader. The experiment is repeated twice.

The test system of series [3] is cancer cell MCF-7. Description: MTT cell inhibition assay, MCF-7. It counts as cell-based.
Protocol: as §4
Series [4] has as its system mouse myeloma SP2/0. Description: CCK-8 cell survival assay, SP2/0. It counts as cell-based. Conditions: CCK-8, 48 h, read-out: IC50 value of the inhibition on SP2/0. Here is the method: (§1) a. […] Reagents • CCK8 reagent kit, purchased from TargetMol China; Annexin V-FITC/PI double staining cell apoptosis detection kit, purchased from Seven Biotech Company. c. Instruments • Multi-function microplate reader FLUOstar Omega, purchased from BMG LABTECH, Germany; • Flow cytometer, purchased from BD Company, United States. d. Experimental Method
(§2) The cells in logarithmic phase with good condition are taken and digested with trypsin, and the prepared culture medium is added to prepare a cell suspension, the cell density being adjusted to 5×10^4 cells/mL. The digested cells are inoculated into a 96-well plate, in which 100 μL of cell suspension is added to each well, and incubated overnight in a cell incubator at 37° C. with 5% CO2. After the cells grow adhered to the wall, the blank control group and the compound groups to be tested with different concentration gradients are set up respectively. […] The optical density value (OD) is measured by using a multifunctional enzyme-linked immunosorbent assay instrument, the wavelength setting to 450 nm. The experiment is repeated for three times, the cell survival rates of different drug concentrations in each group are calculated and counted according to a formula: cell survival rate=(experimental group−blank control group/control group)×100%, and the results are calculated with GraphPad Prism software.

The subject of series [5] is human melanoma A375. As to the kind of experiment: CCK-8 cell survival assay, A375. It counts as cell-based. The note with it: CCK-8, 48 h, read-out: IC50 value of the inhibition on A375. As to the method:
as §1, §2

Series [6] relates to human triple negative breast cancer MDA-MB-231. As to the kind of experiment: CCK-8 cell survival assay, MDA-MB-231. It counts as cell-based. Conditions: CCK-8, 48 h, read-out: IC50 value of the inhibition on MDA-MB-231. Here is the method:
as §1, §2

In series [7] the test system is human lung cancer cell A549. Description: CCK-8 cell survival assay, A549. Conditions: CCK-8, 48 h, read-out: IC50 value of the inhibition on A549. It counts as cell-based. Here is the method: as §1, §2
Series [8] concerns MDA-MB-231 Human triple negative breast cancer. Description: Flow cytometric detection of cell apoptosis (Annexin V-FITC/PI), MDA-MB-231. It counts as cell-based. The note with it: 48 h. Here is the method:
(§3) The cells that are in logarithmic phase and have good condition are taken, digested with trypsin, the prepared culture medium is added to prepare a cell suspension, and the cell density is adjusted to 5×10^4 cells/mL. The digested cells are inoculated in 6-well plate, in which 2 mL cell suspension is added to each well, and incubated overnight in a cell incubator at 37° C. with 5% CO2. After the cells are adhered to the wall, a blank control group and the group of experimental drug to be tested with different concentration gradients are set respectively. 2 mL drug is added to each well for further cultivation for 48 h, and EDTA-free trypsin is used for cell digestion and the digested cells are collected. For the apoptosis detection, the collected cells are required to be adjusted to the cell density of 1×10^6 cells/mL, put into a 5 mL centrifuge tube and centrifuged at 1000 rpm for 5 min, and then washed with PBS for three times. 100 μL Binding Buffer is added to resuspend the cells, and except for the single-stained control and blank control cells, 5 μL FITC and 5 μL PI are added to each tube, mixed gently, and incubated at room temperature in the dark for 15 min. 400 μL Binding Buffer is added into each well before testing on the machine, and mixed and tested on the machine. • Blank control: drug-induced apoptotic cells—without adding a fluorescent reagent (the voltage of scattered light is adjusted to determine the FSC SSC of the population). • Negative control: normal cells (without drug treatment)—added with all the fluorescent staining reagents of the experiment (at the lower left corner, the voltage of the two fluorescent channels is determined). • Single-stained control: one tube each for FITC and PI, positive control for compensation adjustment: drug-induced apoptotic cells or heat-induced apoptotic cells are added with all fluorescent reagents of the experiment (confirming that there is no problem with reagents, instruments and operations).
In general terms: In flow cytometry, cells or beads pass a laser one at a time.

The test system of series [9] is A549 Human lung cancer cell. Description: Flow cytometric detection of cell apoptosis (Annexin V-FITC/PI), A549. Type of series: cell-based. The note with it: 48 h. As to the method: as §3
Series [10] relates to SP2/0 Mouse myeloma. Description: Flow cytometric detection of cell apoptosis (Annexin V-FITC/PI), SP2/0. It counts as cell-based. The note with it: for Apoptosis in early stage / Apoptosis in late stage: 48 h. Here is the method:
as §3

Series [11] relates to A375 Human melanoma. Description: Flow cytometric detection of cell apoptosis (Annexin V-FITC/PI), A375. Type of series: cell-based. Conditions: 48 h. Here is the method:
as §3

Series [12] has as its system KM mice. Description: Mouse toxicity test (acute, intraperitoneal). It counts as in vivo. The text has this: 12 KM mice with body weight 18 g to 22 g and age of 4 to 6 weeks are taken and fed adaptively for 7 days. All mice may eat freely and be provided with sufficient fresh drinking water. The feeding environment for mice meets the standard of SPF laboratory animal level environmental facility.
The behavioral changes after administration and death within 14 days of the animals are observed.

The mark [13] stands for this setting: KM mice, 40 mg/kg intraperitoneal.

Read-outs that look alike come from different tables or passages of the source.

For `Cc1ccc2c(c1)C13CCNC1(C)C1(C)c4[nH]c5ccc(C)cc5c4CCN1C3N2` (stereo not shown) [Compound 15], the IC50 is 23.6 µM in series [1] (Homo sapiens, HeLa); 134 µM in series [2] (Homo sapiens, HEK-293T); 29.8 µM in series [3] (Homo sapiens, MCF7, 48 h).
With `N.N.[Cl][Pt][Cl]` [Cisplatin, cisplatin, reference compound], the IC50 in series [4] came out at 17.4 ± 1.24 µM; in series [5], 16.4 ± 0.36 µM; in series [1], 13.2 µM; in [6] it was 23.4 ± 1.75 µM; in [2], 17.3 µM; in [3] (48 h), 14.2 µM. Also, in [7], the IC50 turned out to be 35.8 ± 1.89 µM.
Consider `COc1ccc2c(c1)C13CCNC1(C)C1(C)c4[nH]c5ccc(OC)cc5c4CCN1C3N2` (stereo not shown) [Compound 14], for which the “Apoptosis in early stage” value in series [8] (MDA-MB-231, 15 μM) came out at 9.21 ± 1.14%; in series [8] (MDA-MB-231, 30 μM), 17.70 ± 3.31%; in series [8] (MDA-MB-231, 45 μM), 20.83 ± 2.79%; in series [9] (A549, 10 μM) it was 4.12 ± 1.73%; in series [9] (A549, 30 μM), 16.23 ± 0.90%; in series [9] (A549, 60 μM) it was 41.28 ± 5.36%. The “Apoptosis in early stage” value in [10] (SP2/0, 10 μM) came out at 13.15 ± 0.57%; in [10] (SP2/0, 20 μM) it was 35.97 ± 3.37%; in series [10] (SP2/0, 30 μM) it was 58.56 ± 1.26%; in series [11] (A375, 10 μM), 27.41 ± 1.87%; in series [11] (A375, 20 μM) it was 34.09 ± 3.2%. In addition, the “Apoptosis in late stage” value in series [8] (MDA-MB-231, 15 μM) stood at 13.41 ± 1.24%; in [8] (MDA-MB-231, 30 μM), 16.33 ± 0.72%; in series [8] (MDA-MB-231, 45 μM), 23.66 ± 1.70%; in series [9] (A549, 10 μM), 9.70 ± 1.18%; in [9] (A549, 30 μM), 16.08 ± 0.62%; in series [9] (A549, 60 μM), 27.32 ± 1.22%. The “Apoptosis in late stage” value in series [10] (SP2/0, 10 μM) was 13.44 ± 1.50%; in series [10] (SP2/0, 20 μM) it was 26.65 ± 1.64%; in [10] (SP2/0, 30 μM), 39.36 ± 0.87%; in series [11] (A375, 10 μM), 10.03 ± 1.87%; in [11] (A375, 20 μM), 13.17 ± 2.30%. For the same compound, the IC50 amounted to 15.1 ± 2.91 µM in [4] (Mus musculus); 17.1 ± 1.45 µM in [5] (Homo sapiens, A-375); 26 ± 1.43 µM in [6] (Homo sapiens, MDA-MB-231); 30.8 ± 1.72 µM in [7] (Homo sapiens, A549). Further, the “total apoptosis rate at early and late stages” value in [10] (SP2/0, 30 μM) is on record as 97%. The “behavioral changes after administration” value in [12] (KM mice, 20 mg/kg intraperitoneal) was “no abnormalities”. Besides, the “behavior and spirit of the animals” value in [12] (setting [13]) is listed as “normal”. The “death within 14 days” value in [12] (setting [13]) was “no death occurs”; in series [12] (KM mice, 60 mg/kg intraperitoneal), “one animal dies on the sixth day”; in series [12] (KM mice, 80 mg/kg intraperitoneal) it was “two animals die on the second day”. Further, in [12] (KM mice, intraperitoneal, single injection, 14 days observation), the lethal dose result is on record as “about 60 mg/kg”. Further, the “body weight / weight gain” value in [12] (mouse, in vivo, ip, 20 mg/kg) is “not significantly different”. Moreover, the “weight gain compared with the negative control group” value in [12] (mouse, in vivo, ip, 40 mg/kg) was “slower”.
In turn, `Cc1ccc2c(c1)C13CCNC1C1(C)c4[nH]c5ccc(C)cc5c4CCN1C3N2` (stereo not shown) [Compound 20] came in with an IC50 in [1] (Homo sapiens, HeLa) of 40.1 µM.
